Results published in patent publication US20110251173A1, “CHEMICAL COMPOUNDS” (AstraZeneca AB, priority 2010, published 2011).

Biological target: T1, human DGAT1 (Homo sapiens, UniProt O75907)
T1 construct: made in house; host or cells: Sf9 insect cells (baculovirus), membrane fraction
T1 sequence (O75907 1-488): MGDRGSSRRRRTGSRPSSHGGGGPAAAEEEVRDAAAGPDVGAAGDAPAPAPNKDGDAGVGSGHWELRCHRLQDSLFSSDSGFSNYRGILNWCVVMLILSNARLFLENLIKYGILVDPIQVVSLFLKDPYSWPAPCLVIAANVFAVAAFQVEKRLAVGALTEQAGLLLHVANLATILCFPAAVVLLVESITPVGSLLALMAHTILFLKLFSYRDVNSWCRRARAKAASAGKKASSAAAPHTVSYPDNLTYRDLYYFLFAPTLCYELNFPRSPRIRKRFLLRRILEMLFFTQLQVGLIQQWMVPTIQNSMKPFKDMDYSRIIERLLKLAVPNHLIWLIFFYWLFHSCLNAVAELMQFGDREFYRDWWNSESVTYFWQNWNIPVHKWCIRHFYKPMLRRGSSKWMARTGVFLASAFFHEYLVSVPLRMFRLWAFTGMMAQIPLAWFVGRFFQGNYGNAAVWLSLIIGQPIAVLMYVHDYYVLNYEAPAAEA
Assay: Human Enzyme Assay (DGAT1 inhibition, 14C oleoyl CoA incorporation into triolein)
Assay type: biochemical
Details: human DGAT1 expressed in sf9 insect cell membranes
Procedure: Briefly, sf9 cells were infected with recombinant baculovirus containing human DGAT1 coding sequences and harvested after 48 h. Cells were lysed by sonication and membranes isolated by centrifuging at 28000 rpm for 1 h at 4° C. on a 41% sucrose gradient. The membrane fraction at the interphase was collected, washed, and stored in liquid nitrogen.
The reaction was started by adding ^14C oleoyl coenzyme A (30 μM final concentration) and incubated at room temperature for 30 minutes. The reaction was stopped by adding 200 μl 2-propanol:heptane 7:1. Radioactive triolein product was separated into the organic phase by adding 300 μl heptane and 100 μl 0.1 M carbonate buffer pH 9.5. DGAT1 activity was quantified by counting aliquots of the upper heptane layer by liquid scintillography.

[1] = Examples 5 to 24, rounded to 2 decimal places
[2] = Examples 25 to 59, rounded to 2 decimal places

Structure (SMILES) | IC50 [2] [nM] | also measured
Cc1ccc(Cl)cc1-c1ccc(N2CCOc3ncnc(N)c3C2=O)cc1 [Example 8, 4-amino-6-(5′-chloro-2′-methylbiphenyl-4-yl)-7,8-dihydropyrimido[5,4-f][1,4]oxazepin-5(6H)-one] | – | IC50 [1]: 70 nM
C[C@@H]1CN(c2ccc(-c3ccc(CS(C)(=O)=O)cc3Cl)cc2)C(=O)c2c(N)ncnc2O1 [Example 48, (R)-4-Amino-6-(2′-chloro-4′-(methylsulfonylmethyl)biphenyl-4-yl)-8-methyl-7,8-dihydropyrimido[5,4-f][1,4]oxazepin-5(6H)-one] | 60 | –
C[C@@H]1CN(c2ccc(-c3ccccc3Cl)cc2)C(=O)c2c(N)ncnc2O1 [Example 44, (R)-4-Amino-6-(2′-chlorobiphenyl-4-yl)-8-methyl-7,8-dihydropyrimido[5,4-f][1,4]oxazepin-5(6H)-one] | 20 | –
Cc1cc(Cl)ccc1-c1ccc(N2CCOc3ncnc(N)c3C2=O)cc1 [Example 7, 4-amino-6-(4′-chloro-2′-methylbiphenyl-4-yl)-7,8-dihydropyrimido[5,4-f][1,4]oxazepin-5(6H)-one] | – | IC50 [1]: 80 nM
C[C@@H]1CN(c2ccc(-c3ccccc3F)cc2)C(=O)c2c(N)ncnc2O1 [Example 46, (R)-4-amino-6-(2′-fluorobiphenyl-4-yl)-8-methyl-7,8-dihydropyrimido[5,4-f][1,4]oxazepin-5(6H)-one] | 20 | –
C[C@@H]1CN(c2ccc(-c3c(Cl)cccc3C#N)c(F)c2)C(=O)c2c(N)ncnc2O1 [Example 52, 4′-((R)-4-Amino-8-methyl-5-oxo-7,8-dihydropyrimido[5,4-f][1,4]oxazepin-6(5H)-yl)-6-chloro-2′-fluorobiphenyl-2-carbonitrile] | 70 | –
N#Cc1c(Cl)cccc1-c1ccc(N2CCOc3ncnc(N)c3C2=O)cc1 [Example 15, 4′-(4-amino-5-oxo-7,8-dihydropyrimido[5,4-f][1,4]oxazepin-6(5H)-yl)-3-chlorobiphenyl-2-carbonitrile] | – | IC50 [1]: 240 nM
C[C@@H]1CN(c2ccc(-c3ccccc3Cl)c(F)c2)C(=O)c2c(N)ncnc2O1 [Example 55, (R)-4-Amino-6-(2′-chloro-2-fluorobiphenyl-4-yl)-8-methyl-7,8-dihydropyrimido[5,4-f][1,4]oxazepin-5(6H)-one] | 10 | –
Nc1ncnc2c1C(=O)N(c1ccc(-c3cccc(F)c3F)cc1)CCO2 [Example 25, 4-Amino-6-(2′,3′-difluorobiphenyl-4-yl)-7,8-dihydropyrimido[5,4-f][1,4]oxazepin-5(6H)-one] | 320 | –
Nc1ncnc2c1C(=O)N(c1ccc(-c3cc(F)c(F)cc3F)cc1)CCO2 [Example 28, 4-Amino-6-(2′,4′,5′-trifluorobiphenyl-4-yl)-7,8-dihydropyrimido[5,4-f][1,4]oxazepin-5(6H)-one] | 130 | –
C[C@@H]1CN(c2ccc(-c3c(F)cccc3F)c(F)c2)C(=O)c2c(N)ncnc2O1 [Example 57, (R)-4-amino-8-methyl-6-(2,2′,6′-trifluorobiphenyl-4-yl)-7,8-dihydropyrimido[5,4-f][1,4]oxazepin-5(6H)-one] | 20 | –
Nc1ncnc2c1C(=O)N(c1ccc(-c3ccc(S(N)(=O)=O)cc3Cl)cc1)CCO2 [Example 4, 4′-(4-Amino-5-oxo-7,8-dihydropyrimido[5,4-f][1,4]oxazepin-6(5H)-yl)-2-chlorobiphenyl-4-sulfonamide] | – | IC50 (usually mean of 2 measurements): 35 nM
Nc1ncnc2c1C(=O)N(c1ccc(-c3ccc(S(N)(=O)=O)cc3Cl)cc1)CCO2 [Example 18, 4′-(4-Amino-5-oxo-7,8-dihydropyrimido[5,4-f][1,4]oxazepin-6(5H)-yl)-2-chlorobiphenyl-4-sulfonamide] | – | IC50 [1]: 40 nM
Cc1c(Cl)cccc1-c1ccc(N2CCOc3ncnc(N)c3C2=O)cc1 [Example 6, 4-amino-6-(3′-chloro-2′-methylbiphenyl-4-yl)-7,8-dihydropyrimido[5,4-f][1,4]oxazepin-5(6H)-one] | – | IC50 [1]: 400 nM
N#Cc1cc(Cl)ccc1-c1ccc(N2CCOc3ncnc(N)c3C2=O)cc1 [Example 22, 4′-(4-Amino-5-oxo-7,8-dihydropyrimido[5,4-f][1,4]oxazepin-6(5H)-yl)-4-chlorobiphenyl-2-carbonitrile] | – | IC50 [1]: 50 nM
Nc1ncnc2c1C(=O)N(c1ccc(-c3ccc(F)cc3F)cc1)CCO2 [Example 29, 4-Amino-6-(2′,4′-difluorobiphenyl-4-yl)-7,8-dihydropyrimido[5,4-f][1,4]oxazepin-5(6H)-one] | 60 | –
N#Cc1ccc(Cl)cc1-c1ccc(N2CCOc3ncnc(N)c3C2=O)cc1 [Example 14, 4′-(4-amino-5-oxo-7,8-dihydropyrimido[5,4-f][1,4]oxazepin-6(5H)-yl)-5-chlorobiphenyl-2-carbonitrile] | – | IC50 [1]: 100 nM
C[C@@H]1CN(c2ccc(-c3ccc(CNS(C)(=O)=O)cc3Cl)cc2)C(=O)c2c(N)ncnc2O1 [Example 45, (R)—N-((4′-(4-amino-8-methyl-5-oxo-7,8-dihydropyrimido[5,4-f][1,4]oxazepin-6(5H)-yl)-2-chlorobiphenyl-4-yl)methyl)methanesulfonamide] | 60 | –
C[C@@H]1CN(c2ccc(-c3ccc(Cl)cc3C#N)c(F)c2)C(=O)c2c(N)ncnc2O1 [Example 50, (R)-4′-(4-Amino-8-methyl-5-oxo-7,8-dihydropyrimido[5,4-f][1,4]oxazepin-6(5H)-yl)-4-chloro-2′-fluorobiphenyl-2-carbonitrile] | 40 | –

The next lines start with results.

IC50 [2] [nM] | Structure (SMILES) | also measured
20 | C[C@@H]1CN(c2ccc(-c3c(F)cccc3F)cc2)C(=O)c2c(N)ncnc2O1 [Example 49, (R)-4-amino-6-(2′,6′-difluorobiphenyl-4-yl)-8-methyl-7,8-dihydropyrimido[5,4-f][1,4]oxazepin-5(6H)-one] | –
40 | Nc1ncnc2c1C(=O)N(c1ccc(-c3ccc(Cl)cc3F)cc1)CCO2 [Example 27, 4-Amino-6-(4′-chloro-2′-fluorobiphenyl-4-yl)-7,8-dihydropyrimido[5,4-f][1,4]oxazepin-5(6H)-one] | –
20 | C[C@@H]1CN(c2ccc(-c3ccccc3Cl)c(C#N)c2)C(=O)c2c(N)ncnc2O1 [Example 59, (R)-4-(4-Amino-8-methyl-5-oxo-7,8-dihydropyrimido[5,4-f][1,4]oxazepin-6(5H)-yl)-2′-chlorobiphenyl-2-carbonitrile] | –
100 | Cc1nc(N)c2c(n1)OCCN(c1ccc(-c3ccc(CNS(C)(=O)=O)cc3Cl)cc1)C2=O [Example 43, N-((4′-(4-amino-2-methyl-5-oxo-7,8-dihydropyrimido[5,4-f][1,4]oxazepin-6(5H)-yl)-2-chlorobiphenyl-4-yl)methyl)methanesulfonamide] | –
10 | C[C@@H]1CN(c2ccc(-c3c(F)cccc3Cl)c(F)c2)C(=O)c2c(N)ncnc2O1 [Example 56, (8R)-4-amino-6-(2′-chloro-2,6′-difluorobiphenyl-4-yl)-8-methyl-7,8-dihydropyrimido[5,4-f][1,4]oxazepin-5(6H)-one] | –
20 | C[C@@H]1CN(c2ccc(-c3ccc(F)cc3F)c(F)c2)C(=O)c2c(N)ncnc2O1 [Example 53, (R)-4-Amino-8-methyl-6-(2,2′,4′-trifluorobiphenyl-4-yl)-7,8-dihydropyrimido[5,4-f][1,4]oxazepin-5(6H)-one] | –
20 | C[C@@H]1CN(c2ccc(-c3ccccc3F)c(F)c2)C(=O)c2c(N)ncnc2O1 [Example 54, (R)-4-Amino-6-(2,2′-difluorobiphenyl-4-yl)-8-methyl-7,8-dihydropyrimido[5,4-f][1,4]oxazepin-5(6H)-one] | –
50 | C[C@@H]1CN(c2ccc(-c3ccc(CN(C)S(C)(=O)=O)cc3Cl)cc2)C(=O)c2c(N)ncnc2O1 [Example 47, (R)—N-((4′-(4-amino-8-methyl-5-oxo-7,8-dihydropyrimido[5,4-f][1,4]oxazepin-6(5H)-yl)-2-chlorobiphenyl-4-yl)methyl)-N-methylmethanesulfonamide] | –
110 | Nc1ncnc2c1C(=O)N(c1ccc(-c3cc(F)ccc3F)cc1)CCO2 [Example 26, 4-Amino-6-(2′,5′-difluorobiphenyl-4-yl)-7,8-dihydropyrimido[5,4-f][1,4]oxazepin-5(6H)-one] | –
90 | Cc1nc(N)c2c(n1)OCCN(c1ccc(-c3ccccc3Cl)cc1)C2=O [Example 42, 4-Amino-6-(2′-chlorobiphenyl-4-yl)-2-methyl-7,8-dihydropyrimido[5,4-f][1,4]oxazepin-5(6H)-one] | –
20 | C[C@@H]1CN(c2ccc(-c3ccc(C#N)cc3Cl)c(F)c2)C(=O)c2c(N)ncnc2O1 [Example 51, (R)-4′-(4-Amino-8-methyl-5-oxo-7,8-dihydropyrimido[5,4-f][1,4]oxazepin-6(5H)-yl)-2-chloro-2′-fluorobiphenyl-4-carbonitrile] | –
